Patent US6914045B2, “Glycopeptide antibiotics” (Wyeth Holdings Corporation, priority 2001, dated 2005)
In brackets after ≈: the same amount, converted by molar mass.

Tests used:
Experiment in all cases: in vitro antibacterial evaluation, MIC by broth dilution
Assay type in all cases: cell-based
Enterococcus sp. = settings: broth dilution, 18 hours at 35° C.
How it was run: (§1)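 MIC = lowest antibiotic concentration preventing visible growth; inoculum 5×10^5 CFU/mL; drug range 64-0.06 μg/mL; Muller-Hinton II […]; NCCLS M7-A2 guidance.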

Escherichia coli = settings: 18 hours at 35° C.
How it was run: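 Inoculum 5×10^5 CFU/mL; concentrations 64 to 0.06 μg/mL; MIC defined as lowest inhibitory level. Conducted by broth dilution under NCCLS guidelines.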

Staphylococcus sp. = settings: broth dilution, 18 hours at 35° C.
How it was run: as §1

Streptococcus sp. = settings: broth dilution, 18 hours at 35° C.
How it was run: as §1

MIC Enterococcus avium (GC 4558) (Enterococcus sp.; Enterococcus avium (GC 4558)): 32 µg/mL (≈ 23.2 µM)
MIC Enterococcus faecalis (ATCC 29212) (Enterococcus sp.; Enterococcus faecalis (ATCC 29212)): 32 µg/mL (≈ 23.2 µM)
MIC Enterococcus faecalis (GC 4553) (Enterococcus sp.; Enterococcus faecalis (GC 4553)): 32 µg/mL (≈ 23.2 µM)
MIC Enterococcus faecalis (GC 4554) (Enterococcus sp.; Enterococcus faecalis (GC 4554)): 32 µg/mL (≈ 23.2 µM)
MIC Enterococcus faecalis (GC 6189) (Enterococcus sp.; Enterococcus faecalis (GC 6189)): 32 µg/mL (≈ 23.2 µM)
MIC Enterococcus faecium (GC 2243) (Enterococcus sp.; Enterococcus faecium (GC 2243)): 32 µg/mL (≈ 23.2 µM)
MIC Enterococcus faecium (GC 4556) (Enterococcus sp.; Enterococcus faecium (GC 4556)): 32 µg/mL (≈ 23.2 µM)
MIC Enterococcus faecium (GC 4557) (Enterococcus sp.; Enterococcus faecium (GC 4557)): 8 µg/mL (≈ 5.8 µM)
MIC Enterococcus faecalis (ATCC 29212) (Enterococcus sp.; strain ATCC 29212): 32 µg/mL (≈ 23.2 µM)
MIC Enterococcus faecalis (GC 2242) (Enterococcus sp.; strain GC 2242): 16 µg/mL (≈ 11.6 µM)
MIC Enterococcus faecium (GC 2243) (Enterococcus sp.; strain GC 2243): 32 µg/mL (≈ 23.2 µM)
MIC Enterococcus faecalis (GC 2691) (Enterococcus sp.; strain GC 2691): 32 µg/mL (≈ 23.2 µM)
MIC Enterococcus faecalis (GC 3059) (Enterococcus sp.; strain GC 3059): 32 µg/mL (≈ 23.2 µM)
MIC Enterococcus faecalis (GC 4552) (Enterococcus sp.; strain GC 4552): 32 µg/mL (≈ 23.2 µM)
MIC Enterococcus faecalis (GC 4553) (Enterococcus sp.; strain GC 4553): 32 µg/mL (≈ 23.2 µM)
MIC Enterococcus faecalis (GC 4554) (Enterococcus sp.; strain GC 4554): 32 µg/mL (≈ 23.2 µM)
MIC Enterococcus faecium (GC 4556) (Enterococcus sp.; strain GC 4556): 32 µg/mL (≈ 23.2 µM)
MIC Enterococcus faecium (GC 4557) (Enterococcus sp.; strain GC 4557): 8 µg/mL (≈ 5.8 µM)
MIC Enterococcus avium (GC 4558) (Enterococcus sp.; strain GC 4558): 32 µg/mL (≈ 23.2 µM)
MIC Enterococcus faecalis (GC 6189) (Enterococcus sp.; strain GC 6189): 32 µg/mL (≈ 23.2 µM)
MIC Escherichia coli (ATCC 25922) (Escherichia coli; Escherichia coli (ATCC 25922)): >64 µg/mL
MIC Escherichia coli (GC 4559) (Escherichia coli; Escherichia coli (GC 4559)): >64 µg/mL
MIC Escherichia coli (GC 4560) (Escherichia coli; Escherichia coli (GC 4560)): 2 µg/mL (≈ 1.45 µM)
MIC Coagulase Negative Staphylococcus (GC 4547) (Staphylococcus sp.): 4 µg/mL (≈ 2.9 µM)
MIC Coagulase Negative Staphylococcus (GC 4548) (Staphylococcus sp.): 2 µg/mL (≈ 1.45 µM)
MIC Coagulase Negative Staphylococcus (GC 4549) (Staphylococcus sp.): 2 µg/mL (≈ 1.45 µM)
MIC Coagulase Negative Staphylococcus (GC 4551) (Staphylococcus sp.): 8 µg/mL (≈ 5.8 µM)
MIC Coagulase Negative Staphylococcus (GC 6257) (Staphylococcus sp.): 2 µg/mL (≈ 1.45 µM)
MIC Staphylococcus aureus (ATCC 29213) (Staphylococcus sp.): 4 µg/mL (≈ 2.9 µM)
MIC Staphylococcus aureus (GC 1131) (Staphylococcus sp.): 8 µg/mL (≈ 5.8 µM)
MIC Staphylococcus aureus (GC 3051) (Staphylococcus sp.): 2 µg/mL (≈ 1.45 µM)
MIC Staphylococcus aureus (GC 3053) (Staphylococcus sp.): 8 µg/mL (≈ 5.8 µM)
MIC Staphylococcus aureus (GC 4541) (Staphylococcus sp.): 4 µg/mL (≈ 2.9 µM)
MIC Staphylococcus aureus (GC 4542) (Staphylococcus sp.): 4 µg/mL (≈ 2.9 µM)
MIC Staphylococcus aureus (GC 4544) (Staphylococcus sp.): 4 µg/mL (≈ 2.9 µM)
MIC Staphylococcus aureus (GC 4545) (Staphylococcus sp.): 4 µg/mL (≈ 2.9 µM)
MIC Staphylococcus aureus-SMITH (GC 4543) (Staphylococcus sp.): 4 µg/mL (≈ 2.9 µM)
MIC Staphylococcus aureus (ATCC 29213) (Staphylococcus sp.; strain ATCC 29213): 4 µg/mL (≈ 2.9 µM)
MIC Staphylococcus aureus (GC 1131) (Staphylococcus sp.; strain GC 1131): 8 µg/mL (≈ 5.8 µM)
MIC Staphylococcus aureus (GC 3051) (Staphylococcus sp.; strain GC 3051): 2 µg/mL (≈ 1.45 µM)
MIC Staphylococcus aureus (GC 3053) (Staphylococcus sp.; strain GC 3053): 8 µg/mL (≈ 5.8 µM)
MIC Staphylococcus aureus (GC 4541) (Staphylococcus sp.; strain GC 4541): 4 µg/mL (≈ 2.9 µM)
MIC Staphylococcus aureus (GC 4542) (Staphylococcus sp.; strain GC 4542): 4 µg/mL (≈ 2.9 µM)
MIC Staphylococcus aureus (GC 4544) (Staphylococcus sp.; strain GC 4544): 4 µg/mL (≈ 2.9 µM)
MIC Staphylococcus aureus (GC 4545) (Staphylococcus sp.; strain GC 4545): 4 µg/mL (≈ 2.9 µM)
MIC Coagulase Negative Staphylococcus (GC 4547) (Staphylococcus sp.; strain GC 4547): 4 µg/mL (≈ 2.9 µM)
MIC Coagulase Negative Staphylococcus (GC 4548) (Staphylococcus sp.; strain GC 4548): 2 µg/mL (≈ 1.45 µM)
MIC Coagulase Negative Staphylococcus (GC 4549) (Staphylococcus sp.; strain GC 4549): 2 µg/mL (≈ 1.45 µM)
MIC Coagulase Negative Staphylococcus (GC 4551) (Staphylococcus sp.; strain GC 4551): 8 µg/mL (≈ 5.8 µM)
MIC Coagulase Negative Staphylococcus (GC 6257) (Staphylococcus sp.; strain GC 6257): 2 µg/mL (≈ 1.45 µM)
MIC Staphylococcus aureus-SMITH (GC 4543) (Staphylococcus sp.; strain SMITH GC 4543): 4 µg/mL (≈ 2.9 µM)
MIC Streptococcus pneumoniae (ATCC 6301) (Streptococcus sp.; strain ATCC 6301): 1 µg/mL (≈ 0.725 µM)
MIC Streptococcus pneumoniae (GC 1894) (Streptococcus sp.; strain GC 1894): 0.5 µg/mL (≈ 0.362 µM)
MIC Streptococcus pyogenes (GC 4563) (Streptococcus sp.; strain GC 4563): 1 µg/mL (≈ 0.725 µM)
MIC Streptococcus agalactiae (GC 4564) (Streptococcus sp.; strain GC 4564): 2 µg/mL (≈ 1.45 µM)
MIC Streptococcus pneumoniae (GC 4565) (Streptococcus sp.; strain GC 4565): 1 µg/mL (≈ 0.725 µM)
SMILES: CCC(C)C(=O)OC1C(CO)OC(OC2C(CO)OC(Oc3ccc(CC4NC(=O)C(C(C)c5ccccc5)NC(=O)CNC(=O)C(CO)NC(=O)C(C(O)C5CNC(=N)N5C5OC(CO)C(O)C(O)C5O)NC(=O)C(C(O)C5CNC(=N)N5)NC4=O)cc3)C(O)C2O)C(O)C1O (stereo not drawn) [Example 278c, Cyclo[glycyl-β-methylphenylalanyl-O-[4-O-[4-O-(2-methylbutanoyl)hexopyranosyl]hexopyranosyl]tyrosyl-3-(2-iminoimidazolidin-4-yl)seryl-3-(3-hexopyranosyl-2-iminoimidazolidin-4-yl)serylseryl]]
MIC Staphylococcus haemolyticus (GC 4546) (Staphylococcus sp.): 2 µg/mL (≈ 1.45 µM)
MIC Staphylococcus haemolyticus (GC 4546) (Staphylococcus sp.; strain GC 4546): 2 µg/mL (≈ 1.45 µM)
